How the values were obtained:
Format in all cases: biochemical
JAK1 = biological target: T1, JAK1 (Homo sapiens, UniProt P23458); assay: JAK1 inhibition (Table 4); conditions: read-out: JAK1 Ki
T1 construct: made in house; host or cells: SF9 insect cells (baculovirus)

JAK3 = biological target: T2, JAK3 (Homo sapiens, UniProt P52333); assay: JAK3 inhibition (Table 4); conditions: read-out: JAK3 Ki
T2 construct: made in house; host or cells: SF9 insect cells (baculovirus)

JAK2 = biological target: T3, JAK2 (Homo sapiens, UniProt O60674); assay: JAK2 inhibition (Table 4); conditions: read-out: JAK2 Ki
T3 construct: made in house; host or cells: SF9 insect cells (baculovirus)

TYK2 = biological target: T4, TYK2 (Homo sapiens, UniProt P29597); assay: TYK2 inhibition (Table 4)
T4 construct: made in house; host or cells: SF9 insect cells (baculovirus)
T4 sequence (P29597 873-1187): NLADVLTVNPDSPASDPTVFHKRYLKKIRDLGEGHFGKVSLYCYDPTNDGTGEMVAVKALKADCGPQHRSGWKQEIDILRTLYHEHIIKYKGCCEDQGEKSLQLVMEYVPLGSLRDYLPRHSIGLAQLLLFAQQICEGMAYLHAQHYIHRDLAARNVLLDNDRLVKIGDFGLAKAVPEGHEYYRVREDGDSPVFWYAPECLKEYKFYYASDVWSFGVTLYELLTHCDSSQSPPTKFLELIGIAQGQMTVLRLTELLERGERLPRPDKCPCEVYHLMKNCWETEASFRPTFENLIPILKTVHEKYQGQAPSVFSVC

T1 sequence (P23458 852-1154): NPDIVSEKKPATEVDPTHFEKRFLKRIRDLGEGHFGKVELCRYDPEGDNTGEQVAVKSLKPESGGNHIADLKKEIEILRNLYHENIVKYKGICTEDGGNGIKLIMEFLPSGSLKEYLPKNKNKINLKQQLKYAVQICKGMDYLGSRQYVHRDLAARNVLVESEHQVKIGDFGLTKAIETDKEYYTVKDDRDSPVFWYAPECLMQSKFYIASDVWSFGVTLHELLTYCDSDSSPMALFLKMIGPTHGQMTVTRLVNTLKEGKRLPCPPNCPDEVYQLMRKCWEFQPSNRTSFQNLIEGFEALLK
T3 sequence (O60674 812-1132): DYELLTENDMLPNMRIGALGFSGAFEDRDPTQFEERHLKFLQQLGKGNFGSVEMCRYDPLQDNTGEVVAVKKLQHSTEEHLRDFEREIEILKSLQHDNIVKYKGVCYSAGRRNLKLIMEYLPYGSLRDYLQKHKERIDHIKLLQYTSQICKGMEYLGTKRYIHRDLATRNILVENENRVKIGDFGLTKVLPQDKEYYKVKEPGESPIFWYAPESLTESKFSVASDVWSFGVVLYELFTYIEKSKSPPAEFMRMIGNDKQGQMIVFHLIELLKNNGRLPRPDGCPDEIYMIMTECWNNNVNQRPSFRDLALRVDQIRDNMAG
T2 sequence (P52333 783-1124): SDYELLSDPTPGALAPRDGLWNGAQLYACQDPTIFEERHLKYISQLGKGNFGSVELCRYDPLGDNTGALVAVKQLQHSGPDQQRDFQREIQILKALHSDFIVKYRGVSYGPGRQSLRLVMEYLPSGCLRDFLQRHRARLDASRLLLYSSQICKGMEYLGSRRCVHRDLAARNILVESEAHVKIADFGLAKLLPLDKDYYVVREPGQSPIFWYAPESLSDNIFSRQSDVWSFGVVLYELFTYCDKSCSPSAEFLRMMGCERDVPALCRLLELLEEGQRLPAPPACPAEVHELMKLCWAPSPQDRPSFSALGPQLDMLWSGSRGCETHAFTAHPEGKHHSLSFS

| SMILES | Ki (JAK1) | Ki (JAK3) | Ki (JAK2) | Ki (TYK2) |
| --- | --- | --- | --- | --- |
| O=C(CS(=O)(=O)c1ccccc1)N1CCC[C@@H](n2cnc3cnc4[nH]ccc4c32)C1 [Example 76, 2-Benzenesulfonyl-1-[(R)-3-(6H-1,3,5,6-tetraaza-as-indacen-1-yl)-piperidin-1-yl]ethanone] | 51.7 nM | 232 nM | 73 nM | 531 nM |
| O=C(CN1CCOCC1)N1CCC(n2cnc3cnc4[nH]ccc4c32)CC1 [Example 77, 2-Morpholin-4-yl-1-[4-(6H-1,3,5,6-tetraaza-as-indacen-1-yl)-piperidin-1-yl]ethanone] | 64.6 nM | 2160 nM | 185 nM | 1940 nM |
| CS(=O)(=O)CC(=O)N1CCC[C@@H](n2cnc3cnc4[nH]ccc4c32)C1 [Example 79, 2-Methanesulfonyl-1-[(R)-3-(6H-1,3,5,6-tetraaza-as-indacen-1-yl)-piperidin-1-yl]ethanone] | 15.7 nM | 77.1 nM | 22.3 nM | 167 nM |
| c1ccc(CN2[C@@H]3CC[C@H]2C[C@H](n2cnc4cnc5[nH]ccc5c42)C3)cc1 [Example 81] | 23 nM | 297 nM | 15.8 nM | 222 nM |
| Cn1nccc1C(=O)N1CCC(n2cnc3cnc4[nH]ccc4c32)CC1 [Example 84, (2-Methyl-2H-pyrazol-3-yl)-[4-(6H-1,3,5,6-tetraaza-as-indacen-1-yl)-piperidin-1-yl]methanone] | 11.6 nM | 747 nM | 36.1 nM | 160 nM |
| c1cc2c(ncc3ncn(C4CCN(C5CCOCC5)CC4)c32)[nH]1 [Example 85, 1-[-(Tetrahydro-pyran-4-yl)-piperidin-4-yl]-1,6-dihydro-1,3,5,6-tetraaza-as-indacene] | 32.2 nM | 716 nM | 64.3 nM | 153 nM |
| Cc1nc2cnc3[nH]ccc3c2n1C1CCN(S(C)(=O)=O)CC1 [Example 86, 1-(1-Methanesulfonyl-piperidin-4-yl)-2-methyl-1,6-dihydro-1,3,5,6-tetraaza-as-indacene] | 7.53 nM | 71.6 nM | 17.8 nM | 48.6 nM |
| O=S(=O)(c1cccnc1)N1CCC(n2cnc3cnc4[nH]ccc4c32)CC1 [Example 88, 1-[1-(Pyridine-3-sulfonyl)-piperidin-4-yl]-1,6-dihydro-1,3,5,6-tetraaza-as-indacene] | 8.98 nM | 407 nM | 10.6 nM | 65.9 nM |
| O=S(=O)(N1CCC(n2cnc3cnc4[nH]ccc4c32)CC1)C(F)(F)F [Example 89, 1-(1-Trifluoromethanesulfonyl-piperidin-4-yl)-1,6-dihydro-1,3,5,6-tetraaza-as-indacene] | 10.8 nM | 283 nM | 12.8 nM | 98.2 nM |
| c1cc2c(ncc3ncn([C@@H]4C[C@H]5CC[C@@H](C4)N5)c32)[nH]1 [Example 93, (1S,3S,5R)-1-(8-aza-bicyclo[3.2.1]oct-3-yl)-1,6-dihydro-1,3,5,6-tetraaza-as-indacene] | 29.6 nM | 1000 nM | 102 nM | 323 nM |
| N#Cc1ccc(N2CCC(n3cnc4cnc5[nH]ccc5c43)CC2)nc1 [Example 95, 4-(6H-1,3,5,6-Tetraaza-as-indacen-1-yl)-3,4,5,6-tetrahydro-2H-[1,2′]bipyridinyl-5′-carbonitrile] | 12.2 nM | 161 nM | 35.4 nM | 102 nM |
| CS(=O)(=O)N1[C@@H]2CC[C@H]1C[C@H](n1cnc3cnc4[nH]ccc4c31)C2 [Example 97, 1-((1S,3S,5R)-8-Methanesulfonyl-8-aza-bicyclo[3.2.1]oct-3-yl)-1,6-dihydro-1,3,5,6-tetraaza-as-indacene] | 3.51 nM | 29.6 nM | 2.32 nM | 19.8 nM |
| N#CCCN1[C@@H]2CC[C@H]1C[C@H](n1cnc3cnc4[nH]ccc4c31)C2 [Example 98, 3-[(1S,3S,5R)-3-(6H-1,3,5,6-Tetraaza-as-indacen-1-yl)-8-aza-bicyclo[3.2.1]oct-8-yl]propionitrile] | 2.04 nM | 11.8 nM | 1.63 nM | 8.64 nM |
| O=C(Cc1nc2cnc3[nH]ccc3c2n1C1CCN(Cc2ccccc2)CC1)N1CCCC1 [Example 100, 2-[1-(1-Benzyl-piperidin-4-yl)-1,6-dihydro-1,3,5,6-tetraaza-as-indacen-2-yl]-1-pyrrolidin-1-yl-ethanone] | 22.1 nM | 16.9 nM | 99.2 nM | 2100 nM |
| CN(C(=O)Cc1nc2cnc3[nH]ccc3c2n1C1CCN(Cc2ccccc2)CC1)C1CCCC1 [Example 101, 2-[1-(1-Benzyl-piperidin-4-yl)-1,6-dihydro-1,3,5,6-tetraaza-as-indacen-2-yl]-N-cyclopentyl-N-methyl-acetamide] | 41 nM | 27.7 nM | 194 nM | 3230 nM |

Continued, values first:

| Ki (JAK1) | Ki (JAK3) | Ki (JAK2) | Ki (TYK2) | SMILES |
| --- | --- | --- | --- | --- |
| 4.26 nM | 97.8 nM | 10.9 nM | 56.7 nM | c1cnc(N2CCC(n3cnc4cnc5[nH]ccc5c43)CC2)cn1 [Example 72, 1-(1-Pyrazin-2-yl-piperidin-4-yl]-1,6-dihydro-1,3,5,6-tetraaza-as-indacene] |
| 0.91 nM | 57.7 nM | 0.95 nM | 6.82 nM | N#Cc1cccc(S(=O)(=O)N2CCC(n3cnc4cnc5[nH]ccc5c43)CC2)c1 [Example 73, 3-[4-(6H-1,3,5,6-Tetraaza-as-indacen-1-yl)-piperidine-1-sulfonyl]benzonitrile] |
| 1.25 nM | 31.9 nM | 2.98 nM | 14.2 nM | O=C(CN1CCC(n2cnc3cnc4[nH]ccc4c32)CC1)c1ccccc1 [Example 74] |
| 5.89 nM | 60.7 nM | 8.53 nM | 19 nM | O=C(C1CC1)N1CCC[C@@H](n2cnc3cnc4[nH]ccc4c32)C1 [Example 75, Cyclopropyl-[(R)-3-(6H-1,3,5,6-tetraaza-as-indacen-1-yl)-piperidin-1-yl]methanone] |
| 5.61 nM | 163 nM | 15.5 nM | 106 nM | c1ccc(CCN2CCC(n3cnc4cnc5[nH]ccc5c43)CC2)cc1 [Example 80, 1-(1-Phenethyl-piperidin-4-yl)-1,6-dihydro-1,3,5,6-tetraaza-as-indacene] |
| 3.5 nM | 14.2 nM | 11.3 nM | 194 nM | OCCc1nc2cnc3[nH]ccc3c2n1C1CCN(Cc2ccccc2)CC1 [Example 82] |
| 6.81 nM | 46.9 nM | 8.75 nM | 63.1 nM | c1cc2c(ncc3ncn(C4CCN(Cc5cocn5)CC4)c32)[nH]1 [Example 90, 1-(1-Oxazol-4-ylmethyl-piperidin-4-yl)-1,6-dihydro-1,3,5,6-tetraaza-as-indacene] |
| 0.64 nM | 82.1 nM | 3.31 nM | 142 nM | CS(=O)(=O)c1cccc(CN2CCC(n3cnc4cnc5[nH]ccc5c43)CC2)c1 [Example 91, 1-[1-(3-Methanesulfonyl-benzyl)-piperidin-4-yl]-1,6-dihydro-1,3,5,6-tetraaza-as-indacene] |
| 3.64 nM | 25.6 nM | 6.15 nM | 109 nM | c1cnc(CN2CCC(n3cnc4cnc5[nH]ccc5c43)CC2)cn1 [Example 92, 1-(1-Pyrazin-2-ylmethyl-piperidin-4-yl)-1,6-dihydro-1,3,5,6-tetraaza-as-indacene] |
| 0.73 nM | 7.69 nM | 2.82 nM | 21 nM | N#Cc1cccc(N2CCC(n3cnc4cnc5[nH]ccc5c43)CC2)n1 [Example 94, 4-(6H-1,3,5,6-Tetraaza-as-indacen-1-yl)-3,4,5,6-tetrahydro-2H-[1,2′]bipyridinyl-6′-carbonitrile] |
| 4.29 nM | 10.8 nM | 16.4 nM | 586 nM | O=C(Cc1nc2cnc3[nH]ccc3c2n1C1CCN(Cc2ccccc2)CC1)NC1CCCC1 [Example 99, 2-[1-(1-Benzyl-piperidin-4-yl)-1,6-dihydro-1,3,5,6-tetraaza-as-indacen-2-yl]-N-cyclopentyl-acetamide] |
| 5.78 nM | 9.7 nM | 51.4 nM | 442 nM | O=C(Cc1nc2cnc3[nH]ccc3c2n1C1CCN(Cc2ccccc2)CC1)N1CCS(=O)(=O)CC1 [Example 102, 2-[1-(1-Benzyl-piperidin-4-yl)-1,6-dihydro-1,3,5,6-tetraaza-as-indacen-2-yl]-1-(1,1-dioxo-1λ*6*thiomorpholin-4-yl)ethanone] |
| 5.09 nM | 11.6 nM | 17.3 nM | 673 nM | CC(C)NC(=O)Cc1nc2cnc3[nH]ccc3c2n1C1CCN(Cc2ccccc2)CC1 [Example 103, 2-[1-(1-Benzyl-piperidin-4-yl)-1,6-dihydro-1,3,5,6-tetraaza-as-indacen-2-yl]-N-isopropylacetamide] |
| 0.9 nM | 11.5 nM | 1.69 nM | 20.9 nM | c1cc2c(ncc3ncn(C4CCN(Cc5cncs5)CC4)c32)[nH]1 [Example 104, 1-(1-Thiazol-5-ylmethyl-piperidin-4-yl)-1,6-dihydro-1,3,5,6-tetraaza-as-indacene] |
| 5.5 nM | 43.6 nM | 10.8 nM | 35.6 nM | CC(=O)N[C@H]1CC[C@H](n2cnc3cnc4[nH]ccc4c32)CC1 [Example 106, Trans N-[4-(6H-1,3,5,6-tetraaza-as-indacen-1-yl)-cyclohexyl]acetamide] |

Source: patent publication US8461328B2, “Tricyclic heterocyclic compounds, compositions and methods of use thereof” (Genentech, Inc., priority 2010, dated 2013)
